Patent publication US9732094B2, “Arylquinazolines” (Merck Patent GmbH, priority 2013, dated 2017)
Read-outs that look alike come from different tables or passages of the source.

Tests used:
[1] = target: DNA-PK phosphorylation at serine 2056 (Homo sapiens (Human), UniProt P78527); experiment: DNA-PK phosphorylation at serine 2056 (cellular), bleomycin-treated HCT116 cells, ELISA; assay type: cell-based; conditions: cellular; HCT116 cells, 10 μM bleomycin, six hours; read-out: IC50 pDNA-PK
Procedure, shortened: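 Chemiluminescent ELISA quantified DNA-PK Ser2056 phosphorylation relative to total DNA-PKcs in HCT116 cells. Cells received compounds together with 10 μM bleomycin for 6 h; DMSO served as blank.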

[2] = target: DNA-PK (Homo sapiens (Human), UniProt P78527); experiment: DNA-PK assay (biochemical), flashplate 33P-ATP kinase assay; conditions: enzymatic; 5 μM ATP
Procedure, shortened: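 Reactions ran in streptavidin-coated flashplates and were halted by 200 mM EDTA, with a further 30 min at room temperature before saline washing.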

[3] = target: Kv11.1 (hERG) (Homo sapiens (Human), UniProt Q12809); experiment: Kv11.1 (hERG) ion channel activity (patch clamp assay), HEK293 cells transfected with hERG gene; conditions: patch clamp, HEK293 transfected with hERG gene
Kv11.1 (hERG), sequence (Q12809 whole entry): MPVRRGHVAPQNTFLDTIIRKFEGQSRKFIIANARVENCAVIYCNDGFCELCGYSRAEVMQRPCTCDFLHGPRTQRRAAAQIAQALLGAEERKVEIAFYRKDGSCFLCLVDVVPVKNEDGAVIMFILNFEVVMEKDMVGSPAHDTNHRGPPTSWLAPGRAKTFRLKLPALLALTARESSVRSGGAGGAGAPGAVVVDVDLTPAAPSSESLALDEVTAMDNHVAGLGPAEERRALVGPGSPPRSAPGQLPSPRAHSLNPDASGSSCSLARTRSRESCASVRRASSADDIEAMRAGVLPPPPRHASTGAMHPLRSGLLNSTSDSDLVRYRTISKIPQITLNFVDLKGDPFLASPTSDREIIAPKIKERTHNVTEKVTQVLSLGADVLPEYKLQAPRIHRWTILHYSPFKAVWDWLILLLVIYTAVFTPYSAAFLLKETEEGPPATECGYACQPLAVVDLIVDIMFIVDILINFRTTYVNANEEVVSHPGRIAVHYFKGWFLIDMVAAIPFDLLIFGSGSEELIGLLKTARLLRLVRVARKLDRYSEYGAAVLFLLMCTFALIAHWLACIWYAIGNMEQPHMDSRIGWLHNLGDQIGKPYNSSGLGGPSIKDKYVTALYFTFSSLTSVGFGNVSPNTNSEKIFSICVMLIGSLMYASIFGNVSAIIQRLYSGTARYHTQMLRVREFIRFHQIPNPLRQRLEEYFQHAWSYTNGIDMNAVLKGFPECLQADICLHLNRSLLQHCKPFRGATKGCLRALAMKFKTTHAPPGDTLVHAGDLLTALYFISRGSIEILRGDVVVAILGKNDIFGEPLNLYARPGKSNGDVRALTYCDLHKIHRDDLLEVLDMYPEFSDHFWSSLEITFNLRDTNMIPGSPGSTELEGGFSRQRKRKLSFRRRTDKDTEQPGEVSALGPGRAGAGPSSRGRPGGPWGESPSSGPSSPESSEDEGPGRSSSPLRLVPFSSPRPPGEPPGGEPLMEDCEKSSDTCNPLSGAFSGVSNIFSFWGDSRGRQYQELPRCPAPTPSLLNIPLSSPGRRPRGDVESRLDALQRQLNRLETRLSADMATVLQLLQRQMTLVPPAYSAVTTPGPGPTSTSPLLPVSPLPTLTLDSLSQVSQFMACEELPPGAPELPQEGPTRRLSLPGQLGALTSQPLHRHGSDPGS

IC50 [1] [µM] | IC50 [2] [µM] | Structure (SMILES) | Ki ([3]; Ki [Kv1.11 hERG]) [µM] | Ki ([3]; read-out: Ki [Kv1.11 hERG]) [µM]
< 0.5 | < 0.003 | OC(c1ccc(F)c(-c2ncnc3cc(N4CCOCC4)ccc23)c1)c1nccnc1Cl (stereo not drawn) [Example 54, (3-Chloro-pyrazin-2-yl)-[4-fluoro-3-(7-morpholin-4-yl-quinazolin-4-yl)phenyl]-methanol] | 15 to 25 | –
5 to 10 | 0.003 to 0.007 | COC(=O)c1ccc(C(O)c2cc(-c3ncnc4cc(N5CCOCC5)ccc34)c(F)cc2Cl)nn1 (stereo not drawn) [Example 58, 6-{[2-Chloro-4-fluoro-5-(7-morpholin-4-yl-quinazolin-4-yl)phenyl]-hydroxymethyl}-pyridazine-3-carboxylic acid methyl ester] | – | > 25
0.5 to 5 | 0.007 to 0.03 | COc1cnc(C(O)c2ccc(F)c(-c3ncnc4cc(N5CCOCC5)ccc34)c2)cn1 (stereo not drawn) [Example 60, [4-Fluoro-3-(7-morpholin-4-yl-quinazolin-4-yl)phenyl]-(5-methoxypyrazin-2-yl)methanol] | 15 to 25 | –
10 to 30 | > 0.03 | COc1cnc(C(O)c2ccc(OC)c(-c3ncnc4cc(N5CCOCC5)ccc34)c2)cn1 (stereo not drawn) [Example 61, [4-methoxy-3-(7-morpholin-4-yl-quinazolin-4-yl)phenyl]-(5-methoxypyrazin-2-yl)methanol] | – | > 25
0.5 to 5 | 0.007 to 0.03 | OC(c1ccc(F)c(-c2ncnc3cc(N4CCOCC4)ccc23)c1)c1cccnn1 (stereo not drawn) [Example 65, [4-Fluoro-3-(7-morpholin-4-yl-quinazolin-4-yl)phenyl]-pyridazin-3-ylmethanol] | – | > 25

The remaining lines, values behind:

Structure (SMILES) | IC50 [1] [µM] | IC50 [2] [µM] | Ki ([3]; Ki [Kv1.11 hERG]) [µM] | Ki ([3]; read-out: Ki [Kv1.11 hERG]) [µM]
O=C(O)c1ccc(C(O)c2cc(-c3ncnc4cc(N5CCOCC5)ccc34)c(F)cc2Cl)nn1 (stereo not drawn) [Example 55, 6-{[2-Chloro-4-fluoro-5-(7-morpholin-4-yl-quinazolin-4-yl)phenyl]-hydroxymethyl}-pyridazine-3-carboxylic acid] | 10 to 30 | 0.003 to 0.007 | – | > 25
OC(c1ccc2nccn2n1)c1cc(-c2ncnc3cc(N4CCOCC4)ccc23)c(F)cc1Cl (stereo not drawn) [Example 56, [2-Chloro-4-fluoro-5-(7-morpholin-4-yl-quinazolin-4-yl)phenyl]-imidazo[1,2-b]pyridazin-6-ylmethanol] | 0.5 to 5 | 0.003 to 0.007 | 10 to 15 | –
OC(c1ccc2nccn2n1)c1cc(-c2ncnc3cc(N4CCOCC4)ccc23)c(F)cc1Cl (stereo not drawn) [Example 57, [2-Chloro-4-fluoro-5-(7-morpholin-4-yl-quinazolin-4-yl)phenyl]-imidazo[1,2-b]pyridazin-6-ylmethanol] | < 0.5 | < 0.003 | – | 10 to 15
Cn1nc(C(O)c2cc(-c3ncnc4cc(N5CCOCC5)ccc34)c(F)cc2Cl)ccc1=O (stereo not drawn) [Example 59, 6-{[2-Chloro-4-fluoro-5-(7-morpholin-4-yl-quinazolin-4-yl)phenyl]-hydroxymethyl}-2-methyl-2H-pyridazin-3-one] | 0.5 to 5 | < 0.003 | 15 to 25 | –
NC(=O)c1ccc(C(O)c2cc(-c3ncnc4cc(N5CCOCC5)ccc34)c(F)cc2Cl)nn1 (stereo not drawn) [Example 62, 6-{[2-Chloro-4-fluoro-5-(7-morpholin-4-yl-quinazolin-4-yl)phenyl]-hydroxymethyl}-pyridazine-3-carboxylic acid amide] | 0.5 to 5 | 0.003 to 0.007 | – | > 25
OC(c1ccc2nccn2n1)c1cc(-c2ncnc3cc(N4CCOCC4)ccc23)c(F)cc1Cl (stereo not drawn) [Example 63, [2-Chloro-4-fluoro-5-(7-morpholin-4-yl-quinazolin-4-yl)phenyl]-imidazo[1,2-b]pyridazin-6-ylmethanol] | 0.5 to 5 | < 0.003 | – | 10 to 15
OC(c1cc(-c2ncnc3cc(N4CCOCC4)ccc23)c(F)cc1Cl)c1nccnc1Cl (stereo not drawn) [Example 64, [2-Chloro-4-fluoro-5-(7-morpholin-4-yl-quinazolin-4-yl)phenyl]-(3-chloropyrazin-2-yl)-methanol] | < 0.5 | 0.003 to 0.007 | 10 to 15 | –
